The target of one assay is T1, human σ2/TMEM97 receptor (Homo sapiens, UniProt Q5BJF2).
T1 construct: expressed in transfected cells; host or cells: HEK-293
The assay can be described thus: Binding assay to human σ2/TMEM97 receptor ([3H]-DTG). As to conditions: transfected HEK-293 membranes, 10 nM [3H]-DTG, 25° C., 120 minutes; read-out: Binding σ-[…] (binding to σ2-receptor expressed as Ki). As for the experimental part: Binding Assay to Human σ2/TMEM97 Receptor.
Transfected HEK-293 membranes (15 μg) were incubated with 10 nM [^3H]-1,3-Di-o-tolylguanidine (DTG) in assay buffer containing Tris-HCl 50 mM at pH 8.0. NSB (non-specific binding) was measured by adding 10 μM haloperidol. The binding of the test compound was measured at either one concentration (% inhibition at 1 or 10 µM) or five different concentrations to determine affinity values (Ki). Plates were incubated at 25° C. for 120 minutes. After the incubation period, the reaction mix was transferred to MultiScreen HTS, FC plates (Millipore), filtered and washed 3 times with ice-cold 10 mM Tris-HCL (pH 8.0). Filters were dried and counted at approximately 40% efficiency in a MicroBeta scintillation counter (Perkin-Elmer) using EcoScint liquid scintillation cocktail.

In the next assay the target is T2, human σ1 receptor (Homo sapiens, UniProt Q99720).
T2 construct: expressed in transfected cells; host or cells: HEK-293
T2 sequence (Q99720 whole entry): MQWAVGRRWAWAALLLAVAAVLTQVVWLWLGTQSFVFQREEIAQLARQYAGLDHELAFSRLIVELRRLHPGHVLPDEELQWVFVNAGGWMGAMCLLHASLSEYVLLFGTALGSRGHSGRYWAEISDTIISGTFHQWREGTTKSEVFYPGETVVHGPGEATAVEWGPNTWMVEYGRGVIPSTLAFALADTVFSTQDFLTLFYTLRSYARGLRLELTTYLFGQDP
Description: Human σ1 receptor radioligand assay ([3H](+)-pentazocine). It is filed as binding. The method, then: Human σ1 Receptor Radioligand Assay
NBS (non-specific binding) was measured by adding 10 μM haloperidol. The binding of the test compound was measured at either one concentration (% inhibition at 1 or 10 µM) or five different concentrations to determine affinity values (Ki). Plates were incubated at 37° C. for 120 minutes. After the incubation period, the reaction mix was then transferred to MultiScreen HTS, FC plates (Millipore), filtered and plates were washed 3 times with ice-cold 10 mM Tris-HCL (pH7.4). Filters were dried and counted at approximately 40% efficiency in a MicroBeta scintillation counter (Perkin-Elmer) using EcoScint liquid scintillation cocktail.

The mark [1] stands for this setting: transfected HEK-293 membranes, 5 nM [3H](+)-pentazocine, 37° C., 120 minutes, read-out: Binding σ-[…] (binding to σ1-receptor expressed as Ki).

The source of these data is patent US20240174671A1, “New 2,3-Dihydro-1H-pyrrolo[3,2-b]pyridine Derivatives as Sigma Ligands” (ACONDICIONAMIENTO TARRASENSE, priority 2021, published 2024).

Read-outs that look alike come from different tables or passages of the source.

T1 sequence (Q5BJF2 whole entry): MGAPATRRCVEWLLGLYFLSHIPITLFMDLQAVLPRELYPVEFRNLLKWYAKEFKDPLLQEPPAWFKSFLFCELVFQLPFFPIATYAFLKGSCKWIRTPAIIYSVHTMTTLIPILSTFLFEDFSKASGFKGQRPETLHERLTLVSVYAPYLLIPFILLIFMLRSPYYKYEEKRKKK

For `Cc1ccc2c(n1)C(C)(C)CN2C(=O)NC1CCN(Cc2ccccc2)CC1` [Example 1, N-(1-benzylpiperidin-4-yl)-3,3,5-trimethyl-2,3-dihydro-1H-pyrrolo[3,2-b]pyridine-1-carboxamide], the Ki on human σ2/TMEM97 receptor is above 1000 nM; at human σ1 receptor (setting [1]) it was below 100 nM.
Turning to `Cc1ccc2c(n1)C(C)(C)CN2C(=O)NCC(c1ccccc1)N(C)C` (centres unmarked) [Example 2, N-(2-(dimethylamino)-2-phenylethyl)-3,3,5-trimethyl-2,3-dihydro-1H-pyrrolo[3,2-b]pyridine-1-carboxamide], the Ki on human σ2/TMEM97 receptor was above 1000 nM; at human σ1 receptor, below 100 nM.
With `CN(C)C(CNC(=O)N1CC(C)(C)c2nc(C(F)(F)F)ccc21)c1ccccc1` (centres unmarked) [Example 3, N-(2-(dimethylamino)-2-phenylethyl)-3,3-dimethyl-5-(trifluoromethyl)-2,3-dihydro-1H-pyrrolo[3,2-b]pyridine-1-carboxamide], the inhibitory constant (Ki) at human σ2/TMEM97 receptor is above 1000 nM; on human σ1 receptor (setting [1]) it was 100 to 500 nM.
Turning to `Cc1ccc2c(n1)C(C)(C)CN2C(=O)NC[C@@H](c1ccccc1)N(C)C` [Example 4, (R)—N-(2-(dimethylamino)-2-phenylethyl)-3,3,5-trimethyl-2,3-dihydro-1H-pyrrolo[3,2-b]pyridine-1-carboxamide], the Ki at human σ2/TMEM97 receptor is above 1000 nM; on human σ1 receptor it was below 100 nM.
Consider `CN(C)[C@@H](CNC(=O)N1CC(C)(C)c2ncccc21)c1ccccc1` [Example 5, (R)—N-(2-(dimethylamino)-2-phenylethyl)-3,3-dimethyl-2,3-dihydro-1H-pyrrolo[3,2-b]pyridine-1-carboxamide], for which the Ki at human σ2/TMEM97 receptor was above 1000 nM; on human σ1 receptor (setting [1]), 100 to 500 nM.
For `Cc1ccc2c(n1)CCN2C(=O)NC[C@@H](c1ccccc1)N(C)C` [Example 6, (R)—N-(2-(dimethylamino)-2-phenylethyl)-5-methyl-2,3-dihydro-1H-pyrrolo[3,2-t]pyridine-1-carboxamide], in that order: above 1000 nM and 500 to 1000 nM.
As to `Cc1ccc2c(n1)C(C)(C)CN2C(=O)NCC(c1ccccc1)N1CCCC1` (centres unmarked) [Example 7, 3,3,5-trimethyl-N-(2-phenyl-2-(pyrrolidin-1-yl)ethyl)-2,3-dihydro-1H-pyrrolo[3,2-b]pyridine-1-carboxamide], the Ki at human σ2/TMEM97 receptor is above 1000 nM; at human σ1 receptor (setting [1]), 100 to 500 nM.
For `Cc1ccc2c(n1)C(C)(C)CN2C(=O)N(C)C[C@@H](c1ccccc1)N(C)C` [Example 8, (R)—N-(2-(dimethylamino)-2-phenylethyl)-N,3,3,5-tetramethyl-2,3-dihydro-1H-pyrrolo[3,2-b]pyridine-1-carboxamide], the values for the Ki at human σ2/TMEM97 receptor and on human σ1 receptor (setting [1]) were above 1000 nM and 500 to 1000 nM, respectively.
Turning to `CCN(CC)C(CNC(=O)N1CC(C)(C)c2nc(C)ccc21)c1ccccc1` (centres unmarked) [Example 9, N-(2-(diethylamino)-2-phenylethyl)-3,3,5-trimethyl-2,3-dihydro-1H-pyrrolo[3,2-b]pyridine-1-carboxamide], the values for the Ki on human σ2/TMEM97 receptor and on human σ1 receptor (setting [1]) were above 1000 nM and below 100 nM, respectively.
For the compound `Cc1ccc2c(n1)C(C)(C)CN2C(=O)N1CCN(Cc2ccccc2)CC1` [Example 10, (4-benzylpiperazin-1-yl)(3,3,5-trimethyl-2,3-dihydro-1H-pyrrolo[3,2-b]pyridin-1-yl)methanone], the Ki on human σ2/TMEM97 receptor was above 1000 nM; at human σ1 receptor (setting [1]), 100 to 500 nM.
For `Cc1ccc2c(n1)C(C)(C)CN2C(=O)N1CCC(N(C)Cc2ccccc2)CC1` [Example 11, (4-(benzyl(methyl)amino)piperidin-1-yl)(3,3,5-trimethyl-2,3-dihydro-1H-pyrrolo[3,2-b]pyridin-1-yl)methanone], in that order: below 100 nM and 100 to 500 nM.
On to `Cc1ccc2c(n1)C(C)(C)CN2C(=O)NC[C@H](Cc1ccccc1)N(C)C` [Example 12, (S)—N-(2-(dimethylamino)-3-phenylpropyl)-3,3,5-trimethyl-2,3-dihydro-1H-pyrrolo[3,2-b]pyridine-1-carboxamide], for which the Ki was above 1000 nM on human σ2/TMEM97 receptor and below 100 nM on human σ1 receptor.
For `COc1ccc(C(CNC(=O)N2CC(C)(C)c3nc(C)ccc32)N(C)C)cc1` (centres unmarked) [Example 13, N-(2-(dimethylamino)-2-(4-methoxyphenyl)ethyl)-3,3,5-trimethyl-2,3-dihydro-1H-pyrrolo[3,2-b]pyridine-1-carboxamide], in that order: above 1000 nM and below 100 nM.
Take `CN(C)[C@@H](CNC(=O)N1CC(C)(C)c2ncc(Cl)cc21)c1ccccc1` [Example 14, (R)-6-chloro-N-(2-(dimethylamino)-2-phenylethyl)-3,3-dimethyl-2,3-dihydro-1H-pyrrolo[3,2-b]pyridine-1-carboxamide]: the results for the Ki on human σ2/TMEM97 receptor and on human σ1 receptor (setting [1]) were above 1000 nM and 100 to 500 nM, respectively.
For the compound `CN(C)[C@@H](CNC(=O)N1CC(C)(C)c2nc(C#N)ccc21)c1ccccc1` [Example 15, (R)-5-cyano-N-(2-(dimethylamino)-2-phenylethyl)-3,3-dimethyl-2,3-dihydro-1H-pyrrolo[3,2-b]pyridine-1-carboxamide], the Ki at human σ2/TMEM97 receptor is above 1000 nM; on human σ1 receptor, below 100 nM.
On to `Cc1nc2c(cc1F)N(C(=O)NC[C@@H](c1ccccc1)N(C)C)CC2(C)C` [Example 16, (R)—N-(2-(dimethylamino)-2-phenylethyl)-6-fluoro-3,3,5-trimethyl-2,3-dihydro-1H-pyrrolo[3,2-b]pyridine-1-carboxamide], for which the Ki was above 1000 nM at human σ2/TMEM97 receptor and below 100 nM on human σ1 receptor (setting [1]).
For `COc1ccc2c(n1)C(C)(C)CN2C(=O)NC[C@@H](c1ccccc1)N(C)C` [Example 17, (R)—N-(2-(dimethylamino)-2-phenylethyl)-5-methoxy-3,3-dimethyl-2,3-dihydro-1H-pyrrolo[3,2-b]pyridine-1-carboxamide], in that order: above 1000 nM and below 100 nM.
As for `Cc1ccc2c(n1)C(C)(C)CN2C(=O)N[C@@H]1CCN(Cc2ccccc2)C1` [Example 18, (R)—N-(1-benzylpyrrolidin-3-yl)-3,3,5-trimethyl-2,3-dihydro-1H-pyrrolo[3,2-b]pyridine-1-carboxamide], the Ki at human σ2/TMEM97 receptor and at human σ1 receptor (setting [1]) was 100 to 500 nM throughout.
Turning to `Cc1ccc2c(n1)C(C)(C)CN2C(=O)NCC(c1ccccc1F)N(C)C` (centres unmarked) [Example 19, N-(2-(dimethylamino)-2-(2-fluorophenyl)ethyl)-3,3,5-trimethyl-2,3-dihydro-1H-pyrrolo[3,2-b]pyridine-1-carboxamide], the results for the Ki on human σ2/TMEM97 receptor and at human σ1 receptor (setting [1]) were above 1000 nM and 100 to 500 nM, respectively.
As to `CN(C)[C@@H](CNC(=O)N1CC(C)(C)c2ncc(F)cc21)c1ccccc1` [Example 20, (R)—N-(2-(dimethylamino)-2-phenylethyl)-6-fluoro-3,3-dimethyl-2,3-dihydro-1H-pyrrolo[3,2-b]pyridine-1-carboxamide], the inhibition constant Ki was above 1000 nM at human σ2/TMEM97 receptor and below 100 nM on human σ1 receptor (setting [1]).
As for `Cc1ccc2c(n1)C(C)(C)CN2C(=O)N[C@H]1CCN(Cc2ccccc2)C1` [Example 21, (S)—N-(1-benzylpyrrolidin-3-yl)-3,3,5-trimethyl-2,3-dihydro-1H-pyrrolo[3,2-b]pyridine-1-carboxamide], the Ki on human σ2/TMEM97 receptor is above 1000 nM; at human σ1 receptor (setting [1]) it was 100 to 500 nM.
In the case of `Cc1ccc2c(n1)C(C)(C)CN2C(=O)NC1CCN(Cc2ccc(F)cc2)CC1` [Example 22, N-(1-(4-fluorobenzyl)piperidin-4-yl)-3,3,5-trimethyl-2,3-dihydro-1H-pyrrolo[3,2-b]pyridine-1-carboxamide], the Ki at human σ2/TMEM97 receptor was 500 to 1000 nM; at human σ1 receptor (setting [1]), below 100 nM.
For the compound `Cc1ccc2c(n1)C(C)(C)CN2C(=O)NC1CCN(Cc2cccc(C#N)c2)CC1` [Example 23, N-(1-(3-cyanobenzyl)piperidin-4-yl)-3,3,5-trimethyl-2,3-dihydro-1H-pyrrolo[3,2-b]pyridine-1-carboxamide], the Ki on human σ2/TMEM97 receptor was above 1000 nM; at human σ1 receptor (setting [1]), 100 to 500 nM.
For `Cc1ccc2c(n1)C(C)(C)CN2C(=O)NC1CCN(Cc2ccc(C#N)cc2)CC1` [Example 24, N-(1-(4-cyanobenzyl)piperidin-4-yl)-3,3,5-trimethyl-2,3-dihydro-1H-pyrrolo[3,2-b]pyridine-1-carboxamide], in that order: above 1000 nM and below 100 nM.
Regarding `Cc1ccc2c(n1)C(C)(C)CN2C(=O)NC1CCN(CCC(C)C)CC1` [Example 25, N-(1-isopentylpiperidin-4-yl)-3,3,5-trimethyl-2,3-dihydro-1H-pyrrolo[3,2-b]pyridine-1-carboxamide], the values for the Ki at human σ2/TMEM97 receptor and on human σ1 receptor (setting [1]) were 100 to 500 nM and below 100 nM, respectively.
Regarding `Cc1ccc2c(n1)C(C)(C)CN2C(=O)NC1CCN(Cc2cccc(F)c2)CC1` [Example 26, N-(1-(3-fluorobenzyl)piperidin-4-yl)-3,3,5-trimethyl-2,3-dihydro-1H-pyrrolo[3,2-b]pyridine-1-carboxamide], the Ki at human σ2/TMEM97 receptor is above 1000 nM; on human σ1 receptor (setting [1]), below 100 nM.
As for `CC1(C)CN(C(=O)NC2CCN(Cc3ccccc3)CC2)c2ccc(C#N)nc21` [Example 30, N-(1-benzylpiperidin-4-yl)-5-cyano-3,3-dimethyl-2,3-dihydro-1H-pyrrolo[3,2-b]pyridine-1-carboxamide], the Ki on human σ1 receptor (setting [1]) is below 100 nM.
